Experimental data from ChEMBL document CHEMBL1909046, “DrugMatrix in vitro pharmacology data”.

Experiments:
Thromboxane-A synthase = target: T1, Thromboxane-A synthase (Homo sapiens, UniProt P24557); experiment: biochemical; assay type: tissue-based, Platelet;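 also: enzyme inhibition assay with PGH2 supplied as substrate; in other assays of this panel Not Active means under 50% inhibition at 10 µM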
T1 sequence (P24557 whole entry): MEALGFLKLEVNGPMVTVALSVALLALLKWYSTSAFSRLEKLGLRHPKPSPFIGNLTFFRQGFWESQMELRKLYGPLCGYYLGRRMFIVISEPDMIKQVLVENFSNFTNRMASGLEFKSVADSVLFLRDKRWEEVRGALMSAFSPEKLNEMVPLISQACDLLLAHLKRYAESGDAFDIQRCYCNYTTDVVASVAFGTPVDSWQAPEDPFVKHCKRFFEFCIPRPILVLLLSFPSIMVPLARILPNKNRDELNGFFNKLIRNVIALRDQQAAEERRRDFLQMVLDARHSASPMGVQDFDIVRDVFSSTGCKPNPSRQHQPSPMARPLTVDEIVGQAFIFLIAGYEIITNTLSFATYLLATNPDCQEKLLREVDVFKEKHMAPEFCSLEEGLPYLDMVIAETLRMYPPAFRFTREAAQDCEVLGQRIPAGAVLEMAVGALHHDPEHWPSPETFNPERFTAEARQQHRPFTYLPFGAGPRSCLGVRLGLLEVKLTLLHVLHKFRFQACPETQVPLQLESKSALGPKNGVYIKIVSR

Caspase-1 = target: T2, Caspase-1 (Homo sapiens, UniProt P29466); design: species or system Escherichia coli;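 also: Caspase-1 enzyme inhibition assay with a peptide substrate; in other assays of this panel Not Active means under 50% inhibition at 10 µM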
T2 sequence (P29466 whole entry): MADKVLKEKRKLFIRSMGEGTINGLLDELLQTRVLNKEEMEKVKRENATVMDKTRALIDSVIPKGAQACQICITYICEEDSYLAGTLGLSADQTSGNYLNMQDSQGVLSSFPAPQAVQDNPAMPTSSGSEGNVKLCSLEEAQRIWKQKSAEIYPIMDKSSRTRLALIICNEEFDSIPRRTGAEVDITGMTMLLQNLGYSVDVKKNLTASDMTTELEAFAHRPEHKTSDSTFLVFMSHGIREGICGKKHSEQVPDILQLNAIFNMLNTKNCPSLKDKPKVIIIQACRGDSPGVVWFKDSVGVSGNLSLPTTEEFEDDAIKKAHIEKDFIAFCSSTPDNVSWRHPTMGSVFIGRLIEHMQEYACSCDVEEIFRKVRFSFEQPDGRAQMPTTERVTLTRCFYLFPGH

[1] = target: T3, Vasoactive intestinal polypeptide receptor 1 (Homo sapiens, UniProt P32241); assay type: cell membranes, Membrane; conditions: ht-29; also: in other assays of this panel Not Active means under 50% inhibition at 10 µM
T3 sequence (P32241 whole entry): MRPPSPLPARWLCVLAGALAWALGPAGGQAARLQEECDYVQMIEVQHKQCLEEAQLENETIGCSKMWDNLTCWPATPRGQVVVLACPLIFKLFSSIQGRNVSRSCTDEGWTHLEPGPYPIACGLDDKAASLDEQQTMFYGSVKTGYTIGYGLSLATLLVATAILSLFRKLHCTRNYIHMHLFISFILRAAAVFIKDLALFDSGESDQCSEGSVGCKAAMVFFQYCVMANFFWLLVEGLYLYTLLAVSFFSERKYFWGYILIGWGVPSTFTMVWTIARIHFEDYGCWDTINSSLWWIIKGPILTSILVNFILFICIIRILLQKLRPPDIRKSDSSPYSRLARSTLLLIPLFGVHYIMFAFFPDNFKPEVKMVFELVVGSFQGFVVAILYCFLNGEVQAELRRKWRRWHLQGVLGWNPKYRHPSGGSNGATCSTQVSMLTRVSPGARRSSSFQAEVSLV

[2] = target: T4, Muscarinic acetylcholine receptor M5 (Homo sapiens, UniProt P08912); assay type: cell membranes, CHO-K1, Membrane; conditions: cho-k1; also: in other assays of this panel Not Active means under 50% inhibition at 10 µM
T4 sequence (P08912 whole entry): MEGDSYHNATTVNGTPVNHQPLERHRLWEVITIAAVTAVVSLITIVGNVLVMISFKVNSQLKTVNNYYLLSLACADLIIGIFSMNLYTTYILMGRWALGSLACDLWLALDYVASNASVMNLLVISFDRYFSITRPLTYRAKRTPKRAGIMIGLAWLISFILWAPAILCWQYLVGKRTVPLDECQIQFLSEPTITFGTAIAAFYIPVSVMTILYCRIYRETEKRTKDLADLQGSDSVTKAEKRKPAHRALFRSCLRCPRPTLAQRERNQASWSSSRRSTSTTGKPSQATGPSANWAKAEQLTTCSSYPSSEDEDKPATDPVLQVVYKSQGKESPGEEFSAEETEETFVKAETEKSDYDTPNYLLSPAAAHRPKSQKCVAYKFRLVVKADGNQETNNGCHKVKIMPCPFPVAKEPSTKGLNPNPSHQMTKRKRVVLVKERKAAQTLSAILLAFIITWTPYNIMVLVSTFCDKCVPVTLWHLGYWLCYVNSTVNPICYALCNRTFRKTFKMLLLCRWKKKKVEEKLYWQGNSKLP

[3] = target: T5, Alpha-1A adrenergic receptor (Rattus norvegicus, UniProt P43140); experiment: DRUGMATRIX: Alpha-1A adrenergic receptor radioligand binding (ligand: prazosin); assay type: cell membranes, Wistar, Submaxillary gland, Membrane; conditions: Not Active = under 50% inhibition at 10 µM
T5 sequence (P43140 whole entry): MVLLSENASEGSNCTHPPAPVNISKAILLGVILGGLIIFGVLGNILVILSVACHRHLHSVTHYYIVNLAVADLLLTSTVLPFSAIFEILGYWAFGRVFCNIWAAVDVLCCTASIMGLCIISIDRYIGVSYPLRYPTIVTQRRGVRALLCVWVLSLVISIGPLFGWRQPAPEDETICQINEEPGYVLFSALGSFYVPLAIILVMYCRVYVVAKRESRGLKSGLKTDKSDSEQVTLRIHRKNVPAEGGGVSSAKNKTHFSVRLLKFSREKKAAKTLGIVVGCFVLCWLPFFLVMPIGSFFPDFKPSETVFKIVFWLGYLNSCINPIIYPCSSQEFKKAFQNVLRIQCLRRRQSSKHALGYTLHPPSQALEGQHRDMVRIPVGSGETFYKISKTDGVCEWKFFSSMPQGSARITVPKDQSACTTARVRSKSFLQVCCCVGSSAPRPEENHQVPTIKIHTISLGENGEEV

| SMILES | IC50 (Thromboxane-A synthase; platelet) | IC50 (Caspase-1) | IC50 [1] | IC50 [2] | IC50 [3] | IC50 (Caspase-1; read-out: IC50) | IC50 (Thromboxane-A synthase; read-out: IC50) | IC50 ([3]; read-out: IC50) | Ki ([3]; read-out: Ki) |
| --- | --- | --- | --- | --- | --- | --- | --- | --- | --- |
| Cc1cc2c(s1)Nc1ccccc1N=C2N1CCN(C)CC1 [OLANZAPINE] | Not Active | Not Active | Not Active |  |  |  |  |  |  |
| CC1(C)[C@H](C(=O)O)N2C(=O)C[C@H]2S1(=O)=O [SULBACTAM] | Not Active | Not Active | Not Active | Not Active | Not Active |  |  |  |  |
| Oc1ccc(/C=C/c2cc(O)cc(O)c2)cc1 [RESVERATROL] | Not Active | Not Active | Not Active | Not Active | Not Active |  |  |  |  |
| O=C1CC[C@@]2(O)[C@H]3Cc4ccc(O)c5c4[C@@]2(CCN3CC2CC2)[C@H]1O5 [NALTREXONE] | Not Active | Not Active | Not Active | Not Active | Not Active |  |  |  |  |
| Cc1nnc(NS(=O)(=O)c2ccc(N)cc2)s1 [SULFAMETHIZOLE] | Not Active | Not Active | Not Active | Not Active | Not Active |  |  |  |  |
| C=CCc1ccc2c(c1)OCO2 [SAFROLE] | Not Active | Not Active | Not Active | Not Active | Not Active |  |  |  |  |
| Cc1cn([C@H]2C=C[C@@H](CO)O2)c(=O)[nH]c1=O [STAVUDINE] | Not Active | Not Active | Not Active | Not Active | Not Active |  |  |  |  |
| CC1=C(/C=C/C(C)=C/C=C/C(C)=C/C(=O)O)C(C)(C)CCC1 [TRETINOIN] | Not Active | Not Active | Not Active | Not Active | Not Active |  |  |  |  |
| Nc1nc(N)c2nc(-c3ccccc3)c(N)nc2n1 | Not Active |  | Not Active | Not Active | Not Active | 3.66 µM |  |  |  |
| CN1C(=O)OC(C)(C)C1=O [TRIMETHADIONE] | Not Active | Not Active | Not Active | Not Active | Not Active |  |  |  |  |
| Cc1ccc(S(=O)(=O)NC(=O)NN2CCCCCC2)cc1 [TOLAZAMIDE] | Not Active | Not Active | Not Active | Not Active | Not Active |  |  |  |  |
| O=C(O)c1cc(/N=N/c2ccc(S(=O)(=O)Nc3ccccn3)cc2)ccc1O [SULFASALAZINE] |  |  | Not Active | Not Active | Not Active | 28.8 µM | 19.6 µM |  |  |
| CCN(CC)C(=S)SSC(=S)N(CC)CC | Not Active | Not Active | Not Active | Not Active | Not Active |  |  |  |  |
| CS(=O)(=O)c1ccc(C2=C(c3ccccc3)C(=O)OC2)cc1 [ROFECOXIB] | Not Active | Not Active | Not Active | Not Active | Not Active |  |  |  |  |
| Cc1cnc(NC(=O)C2=C(O)c3ccccc3S(=O)(=O)N2C)s1 [MELOXICAM] | Not Active | Not Active | Not Active | Not Active | Not Active |  |  |  |  |
| C1CCN2C[C@@H]3C[C@@H](CN4CCCC[C@@H]34)[C@H]2C1 [SPARTEINE] | Not Active | Not Active | Not Active | Not Active | Not Active |  |  |  |  |
| CO[C@@H]1[C@@H](OC)[C@H](C)[C@@](O)(CC(=O)O)O[C@H]1[C@H](C)[C@H]1O[C@@]2(CC[C@@](C)([C@H]3CC[C@@](C)([C@@H]4O[C@@H]([C@H]5O[C@](C)(O)[C@H](C)C[C@@H]5C)C[C@@H]4O[C@@H]4C[C@H](OC)[C@@H](OC)[C@H](C)O4)O3)O2)C[C@H](O)[C@H]1C.N [MADURAMICIN] | Not Active | Not Active | Not Active | Not Active | Not Active |  |  |  |  |
| C[N+]1(C)[C@@H]2C[C@@H](OC(=O)[C@H](CO)c3ccccc3)C[C@H]1[C@@H]1O[C@@H]12.[Br-] [METHSCOPOLAMINE BROMIDE] | Not Active | Not Active | Not Active |  | Not Active |  |  |  |  |
| CN(C)CCC=C1c2ccccc2COc2ccccc21 [DOXEPIN] | Not Active | Not Active | Not Active |  |  |  |  | 0.107 µM | 0.043 µM |
